Test results as given in ChEMBL document CHEMBL1129695, “Synthesis and structure-activity relationships of 6-substituted androst-4-ene analogs as aromatase inhibitors” (J Med Chem, 1996).

Experiments:
Aromatase [1] = biological target: T1, Aromatase (Homo sapiens, UniProt P11511)
T1 sequence (P11511 whole entry): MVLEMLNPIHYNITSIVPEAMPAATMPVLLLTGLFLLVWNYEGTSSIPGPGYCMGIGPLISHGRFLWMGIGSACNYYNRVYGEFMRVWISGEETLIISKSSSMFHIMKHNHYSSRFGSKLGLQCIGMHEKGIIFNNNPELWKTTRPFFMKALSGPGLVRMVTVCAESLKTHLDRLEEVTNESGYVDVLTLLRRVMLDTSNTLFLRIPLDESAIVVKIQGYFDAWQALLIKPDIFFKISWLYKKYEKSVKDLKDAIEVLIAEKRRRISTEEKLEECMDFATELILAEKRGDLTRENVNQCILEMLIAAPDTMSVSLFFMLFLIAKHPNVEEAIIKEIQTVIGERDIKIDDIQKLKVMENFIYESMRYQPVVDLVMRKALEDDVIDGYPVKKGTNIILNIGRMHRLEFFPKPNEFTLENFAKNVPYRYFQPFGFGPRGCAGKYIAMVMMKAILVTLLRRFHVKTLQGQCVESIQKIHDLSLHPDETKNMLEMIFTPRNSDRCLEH
Description: In vitro inhibition of cytochrome P450 19A1 in human placental microsomes

Aromatase [2] = biological target: T1, Aromatase; remark: listed apart in the source
Description: Apparent inhibition constant (Ki) against Cytochrome P450 19A1

| Compound | IC50 (Aromatase [1]) | Ki (Aromatase [2]) |
| --- | --- | --- |
| CO[C@H]1CC2C3CCC(=O)C3(C)CCC2C2(C)CCCC=C12 (some centres undefined) | 120 nM | 12 nM |
| CC[C@H]1CC2C3CCC(=O)C3(C)CCC2C2(C)CCCC=C12 (some centres undefined) | 110 nM | 43 nM |
| CCCCC[C@@H]1CC2C3CCC(=O)C3(C)CCC2C2(C)CCCC=C12 (some centres undefined) | 12000 nM | 1200 nM |
| CC12CCCC=C1CCC1C2CCC2(C)C1CC[C@@H]2O (some centres undefined) | 360 nM | 45 nM |
| C[C@H]1CC2C(CCC3(C)C(O)CCC23)C2(C)CCCC=C12 (some centres undefined) | 3700 nM | 380 nM |
| CCCCC[C@@H]1CC2C(CCC3(C)C(O)CCC23)C2(C)CCCC=C12 (some centres undefined) | > 50000 nM | 100000 nM |
| CC[C@@H]1CC2C(CCC3(C)C(O)CCC23)C2(C)CCCC=C12 (some centres undefined) | 3300 nM | 340 nM |
| CCC[C@@H]1CC2C3CCC(=O)C3(C)CCC2C2(C)CCCC=C12 (some centres undefined) | 440 nM | 51 nM |
| C[C@@H]1CC2C(CCC3(C)C(O)CCC23)C2(C)CCCC=C12 (some centres undefined) | 1600 nM | 140 nM |
| CC(=O)O[C@H]1CC2C3CCC(=O)C3(C)CCC2C2(C)CCCC=C12 (some centres undefined) | 160 nM | 18 nM |
| CCCCC[C@H]1CC2C(CCC3(C)C(O)CCC23)C2(C)CCCC=C12 (some centres undefined) | > 50000 nM | 44000 nM |
| CCC[C@H]1CC2C3CCC(=O)C3(C)CCC2C2(C)CCCC=C12 (some centres undefined) | 230 nM | 30 nM |
| CC[C@H]1CC2C(CCC3(C)C(O)CCC23)C2(C)CCCC=C12 (some centres undefined) | 1300 nM | 180 nM |
| C[C@H]1CC2C3CCC(=O)C3(C)CCC2C2(C)CCCC=C12 (some centres undefined) | 37 nM | 3.1 nM |
| CCCCCCCC[C@H]1CC2C3CCC(=O)C3(C)CCC2C2(C)CCCC=C12 (some centres undefined) | > 50000 nM | 4100 nM |
| CO[C@@H]1CC2C3CCC(=O)C3(C)CCC2C2(C)CCCC=C12 (some centres undefined) | 130 nM | 12 nM |
| CCCCCCCC[C@H]1CC2C(CCC3(C)C(O)CCC23)C2(C)CCCC=C12 (some centres undefined) | > 50000 nM |  |
| CC[C@@H]1CC2C3CCC(=O)C3(C)CCC2C2(C)CCCC=C12 (some centres undefined) | 320 nM | 43 nM |
| CCCCC[C@H]1CC2C3CCC(=O)C3(C)CCC2C2(C)CCCC=C12 (some centres undefined) | 9000 nM | 400 nM |
| C[C@@H]1CC2C3CCC(=O)C3(C)CCC2C2(C)CCCC=C12 (some centres undefined) | 49 nM | 5.3 nM |
| CC(=O)O[C@@H]1CC2C3CCC(=O)C3(C)CCC2C2(C)CCCC=C12 (some centres undefined) | 260 nM | 24 nM |
| CCCCCCCC[C@@H]1CC2C3CCC(=O)C3(C)CCC2C2(C)CCCC=C12 (some centres undefined) | > 50000 nM | 2600 nM |
| CCCCCCCC[C@@H]1CC2C(CCC3(C)C(O)CCC23)C2(C)CCCC=C12 (some centres undefined) | > 50000 nM |  |
